{"source": "patent US20120121540A1", "about": "(priority 2007, published 2012)", "data": [{"test": "HCV replicon assay (luciferase reporter, ET cell line)", "type": "cell-based", "settings": "Hepatitis C virus, HCV replicon luciferase activity in ET cells", "outline": "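EC50 and, via WST-1 cytotoxicity, TC50 were fitted with a Hill-coefficient equation to % inhibition across 10 two-fold dilutions. Compounds at 0.1 nM-[…] with 0.5% DMSO were applied 24 h post-seeding to replicon-bearing ET cells (luc-ubi-neo/NS3-5B, adaptive mutations). Firefly luciferase signal was measured after 48-72 h.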", "units": {"inhibition at 10 µM": "%"}, "values": [{"smiles": "O=C(c1nc2c(C(F)(F)F)cc(-c3ccoc3)cn2c1Cl)N1CCC(c2ccccc2F)C1", "note": "(stereo not drawn) [Compound 333, (3-Chloro-6-furan-3-yl-8-trifluoromethyl-imidazo[1,2-a]pyridin-2-yl)-[3-(2-fluoro-phenyl)-pyrrolidin-1-yl]-methanone]", "inhibition at 10 µM": 98.9}, {"smiles": "O=C(c1nc2c(C(F)(F)F)cc(-c3cn[nH]c3)cn2c1Br)N1CC=C(c2cscn2)CC1", "note": "[Compound 609, [3-Bromo-6-(1H-pyrazol-4-yl)-8-trifluoromethyl-imidazo[1,2-a]pyridin-2-yl]-(4-thiazol-4-yl-3,6-dihydro-2H-pyridin-1-yl)-methanone]", "inhibition at 10 µM": 94.1}, {"smiles": "O=C(c1nc2c(C(F)(F)F)cc(-c3ccoc3)cn2c1Cl)N1CCN(c2ncccn2)CC1", "note": "[Compound 597, (3-Chloro-6-furan-3-yl-8-trifluoromethyl-imidazo[1,2-a]pyridin-2-yl)-(4-pyrimidin-2-yl-piperazin-1-yl)-methanone]", "inhibition at 10 µM": 38.7}, {"smiles": "O=C(NCc1nccs1)c1nc2c(C(F)(F)F)cc(-c3ccoc3)cn2c1Cl", "note": "[Compound 415, 3-Chloro-3-furan-3-yl-8-trifluomethyl-imidazo[1,2-a]-pyridine-2-carboxylic Acid (thiazol-2-ylmethyl)-amide]", "inhibition at 10 µM": 92.6}, {"smiles": "C#Cc1ccccc1C1=CCN(C(=O)c2nc3c(C(F)(F)F)cc(-c4ccoc4)cn3c2Cl)CC1", "note": "[Compound 567, (3-Chloro-6-furan-3-yl-8-trifluoromethyl-imidazo[1,2-a]pyridin-2-yl)-[4-(2-ethynyl-phenyl)-3,6-dihydro-2H-pyridin-1-yl)-methanone]", "inhibition at 10 µM": 81.3}, {"smiles": "O=C(c1nc2c(C(F)(F)F)cc(-c3cn[nH]c3)cn2c1Cl)N1CC=C(c2ncccc2F)C1", "note": "[Compound 592]", "inhibition at 10 µM": 97.1}, {"smiles": "O=C(c1nc2c(C(F)(F)F)cc(-c3ccoc3)cn2c1Cl)N1CCN(c2ccc(C(F)(F)F)cc2)CC1", "note": "[Compound 539]", "inhibition at 10 µM": 78.9}, {"smiles": "O=C(c1nc2c(C(F)(F)F)cc(-c3ccoc3)cn2c1Cl)N1CC=C(c2cscn2)CC1", "note": "[Compound 566]", "inhibition at 10 µM": 99.4}, {"smiles": "O=C(c1nc2c(C(F)(F)F)cc(-c3ccoc3)cn2c1Cl)N1CCC(c2cccc(F)c2)CC1", "note": "[Compound 276, (3-Chloro-6-furan-3-yl-8-trifluoromethyl-imidazo[1,2-a]pyridine-2-yl)-[4-(3-fluoro-phenyl)-piperidin-1-yl]-methanone]", "inhibition at 10 µM": 74}, {"smiles": "O=C(c1nc2c(C(F)(F)F)cc(-c3ccoc3)cn2c1Cl)N1CCC(c2ccccc2Cl)CC1", "note": "[Compound 541, (3-Chloro-6-furan-3-yl-8-trifluoromethyl-imidazo[1,2-a]pyridin-2-yl)-[4-(2-chloro-phenyl)-piperidin-1-yl]-methanone]", "inhibition at 10 µM": 89.7}, {"smiles": "O=C(c1nc2c(C(F)(F)F)cc(-c3coc(Cl)c3)cn2c1Cl)N1CCC(c2cccc(F)c2)C1", "note": "(stereo not drawn) [Compound 633, [3-Chloro-6-(5-chloro-furan-3-yl)-8-trifluoromethyl-imidazo[1,2-a]pyridin-2-yl]-[3-(3-fluoro-phenyl)-pyrrolidin-1-yl]-methanone]", "inhibition at 10 µM": 90.2}, {"smiles": "O=C(c1nc2c(C(F)(F)F)cc(-c3ccoc3)cn2c1Cl)N1CCN(c2ccccc2)CC1", "note": "[Compound 534, (3-Chloro-6-furan-3-yl-8-trifluoromethyl-imidazo[1,2-a]pyridine-2-yl)-(4-phenyl-piperazin-1-yl)-methanone]", "inhibition at 10 µM": 77.6}, {"smiles": "O=C(NCc1cccs1)c1nc2c(C(F)(F)F)cc(-c3cn[nH]c3)cn2c1-c1cn[nH]c1", "note": "[Compound 485, 3,6-Bis-(1H-pyrazol-4-yl)-8-trifluoromethyl-imidazo[1,2-a]pyridine-2-carboxylic acid (thiophen-2-ylmethyl)-amide]", "inhibition at 10 µM": 58.9}, {"smiles": "O=C(c1nc2c(C(F)(F)F)cc(-c3ccoc3)cn2c1Cl)N1CC=C(c2c(F)cccc2F)CC1", "note": "[Compound 564, (3-Chloro-6-furan-3-yl-8-trifluoromethyl-imidazo[1,2-a]pyridin-2-yl)-[4-(2,6-difluoro-phenyl)-3,6-dihydro-2H-pyridin-1-yl)-methanone]", "inhibition at 10 µM": 99}, {"smiles": "O=C(c1nc2c(C(F)(F)F)cc(-c3cn[nH]c3)cn2c1Br)N1CC=C(c2ccsc2)C1", "note": "[Compound 435, [3-Bromo-6-(1H-pyrazol-4-yl)-8-trifluoromethyl-imidazo[1,2-a]pyridin-2-yl]-(3-thiophen-3-yl-2,5-dihydro-pyrrol-1-yl)-methanone]", "inhibition at 10 µM": 98.8}, {"smiles": "O=C(NCc1cccs1)c1nc2c(C(F)(F)F)cc(-c3ccc(F)c(F)c3)cn2c1Cl", "note": "[Compound 198, 3-Chloro-6-(3,4-difluoro-phenyl)-8-trifluoromethyl-imidazo[1,2-a]pyridine-2-carboxylic acid (thiophen-2-ylmethyl)-amide]", "inhibition at 10 µM": 83.2}, {"smiles": "COc1ccc(C2CCN(C(=O)c3nc4c(C(F)(F)F)cc(-c5ccoc5)cn4c3Cl)C2)cc1", "note": "(stereo not drawn) [Compound 335, (3-Chloro-6-furan-3-yl-8-trifluoromethyl-imidazo[1,2-a]pyridin-2-yl)-[3-(4-methoxy-phenyl)-pyrrolidin-1-yl]-methanone]", "inhibition at 10 µM": 76.3}, {"smiles": "O=C(NCc1cccc(N2CCOCC2)c1)c1nc2c(C(F)(F)F)cc(-c3ccco3)cn2c1Cl", "note": "[Compound 213, 3-Chloro-6-furan-2-yl-8-trifluoromethyl-imidazo[1,2-a]pyridine-2-carboxylic Acid 3-morpholin-4-yl-benzylamide]", "inhibition at 10 µM": 2.7}, {"smiles": "O=C(NCc1cccs1)c1nc2c(-c3ccoc3)cc(-c3ccccc3)cn2c1Cl", "note": "[Compound 263]", "inhibition at 10 µM": 60.3}, {"smiles": "O=C(c1nc2c(C(F)(F)F)cc(-c3ccoc3)cn2c1Cl)N1C=C(c2ccccc2F)CCC1", "note": "[Compound 590, (3-Chloro-6-furan-3-yl-8-trifluoromethyl-imidazo[1,2-a]pyridine-2-yl)-[5-(2-fluoro-phenyl)-3,4-dihydro-2H-pyridin-1-yl]-methanone]", "inhibition at 10 µM": 93.9}, {"smiles": "O=C(NCc1nccs1)c1nc2c(C(F)(F)F)cc(-c3ccco3)cn2c1Cl", "note": "[Compound 182, 3-Chloro-6-furan-2-yl-8-trifluoromethyl-imidazo[1,2-a]pyridine-2-carboxylic acid (thiazol-2-ylmethyl)-amide]", "inhibition at 10 µM": 80.8}, {"smiles": "CC(=O)N[C@H]1CN(C(=O)c2nc3c(C(F)(F)F)cc(-c4ccoc4)cn3c2Cl)C[C@@H]1c1ccccc1", "note": "(stereo in doubt) [Compound 459, N-(-1-(3-Chloro-6-furan-3-yl-8-trifluoromethyl-imidazo[1,2-a]pyridine-2-carbonyl)-4-phenyl-pyrrolidin-3-yl)-acetamide]", "inhibition at 10 µM": 25.5}, {"smiles": "O=C(c1nc2c(C(F)(F)F)cc(-c3ccoc3)cn2c1Cl)N1CCC(c2ccc(F)cc2)C1", "note": "(stereo not drawn) [Compound 233, (3-Chloro-6-furan-3-yl-8-trifluoromethyl-imidazo[1,2-a]pyridin-2-yl)-[3-(4-fluoro-phenyl)-pyrrolidin-1-yl]-methanone]", "inhibition at 10 µM": 90.6}, {"smiles": "O=C(NCc1ccccc1OC(F)(F)F)c1nc2c(C(F)(F)F)cc(-c3ccco3)cn2c1Cl", "note": "[Compound 202, 3-Chloro-6-furan-2-yl-8-trifluoromethyl-imidazo[1,2-a]pyridine-2-carboxylic acid 2-trifluoromethoxy-benzylamide]", "inhibition at 10 µM": 78.1}, {"smiles": "O=C(c1nc2c(C(F)(F)F)cc(-c3ccoc3)cn2c1Cl)N1CCCC(c2ccccc2F)C1", "note": "(stereo not drawn) [Compound 547, (3-Chloro-6-furan-3-yl-8-trifluoromethyl-imidazo[1,2-a]pyridin-2-yl)-[3-(2-fluoro-phenyl)-piperidin-1-yl)-methanone]", "inhibition at 10 µM": 94.7}, {"smiles": "O=C(Cc1c(C(=O)N2CCC(c3ccc(F)cc3)C2)nc2c(C(F)(F)F)cc(-c3ccoc3)cn12)NC1CC1", "note": "(stereo not drawn) [Compound 242, N-Cyclopropyl-2-{2-[3-(4-fluoro-phenyl)-pyrrolidine-1-carbonyl]-6-furan-3-yl-8-trifluoromethyl-imidazo[1,2-a]pyridin-3-yl}-acetamide]", "inhibition at 10 µM": 93}, {"smiles": "CC(NC(=O)c1nc2c(C(F)(F)F)cc(-c3ccco3)cn2c1Cl)c1cccs1", "note": "(stereo not drawn) [Compound 162, 3-Chloro-6-furan-2-yl-8-trifluoromethyl-imidazo[1,2-a]pyridine-2-carboxylic acid (1-thiophen-2-yl-ethyl)-amide]", "inhibition at 10 µM": 44.2}, {"smiles": "O=C(NCc1cccs1)c1nc2c(C(F)(F)F)cc(-c3ccccc3)cn2c1C(F)(F)F", "note": "[Compound 193, 6-Phenyl-3,8-bis-trifluoromethyl-imidazo[1,2-a]pyridine-2-carboxylic acid (thiophen-2-ylmethyl)-amide]", "inhibition at 10 µM": 82.3}, {"smiles": "O=S(=O)(NCc1cn2cc(-c3ccoc3)cc(C(F)(F)F)c2n1)c1ccccc1", "note": "[Compound 395]", "inhibition at 10 µM": 90.4}, {"smiles": "O=C(c1nc2c(C(F)(F)F)cc(-c3cn[nH]c3)cn2c1Cl)N1CCC(c2ccccc2)C1", "note": "(stereo not drawn) [Compound 464, [3-Chloro-6-(1H-pyrazol-4-yl)-8-trifluoromethyl-imidazo[1,2-a]pyridin-2-yl]-(3-phenyl-pyrrolidin-1-yl)-methanone]", "inhibition at 10 µM": 93.7}, {"smiles": "COc1ccccc1C1CCN(C(=O)c2nc3c(C(F)(F)F)cc(-c4ccoc4)cn3c2Cl)C1", "note": "(stereo not drawn) [Compound 463, (3-Chloro-6-furan-3-yl-8-trifluoromethyl-imidaz [1,2-a]pyridin-2-yl)-[3-(2-methoxy-phenyl)-pyrrolidin-1-yl]-methanone]", "inhibition at 10 µM": 80.6}, {"smiles": "O=C(c1nc2c(C(F)(F)F)cc(-c3ccoc3)cn2c1Cl)N1CCC(c2cccs2)CC1", "note": "[Compound 598, [3-chloro-6-(furan-3-yl)-8-(trifluoromethyl)imidazo[1,2-a]pyridin-2-yl][4-(thiophen-2-yl)piperidin-1-yl]methanone]", "inhibition at 10 µM": 95.9}, {"smiles": "O=C(NC1CN(S(=O)(=O)c2ccccc2)C1)c1nc2c(C(F)(F)F)cc(-c3ccoc3)cn2c1Cl", "note": "[Compound 511, 3-Chloro-6-furan-3-yl-8-trifluoromethyl-imidazo[1,2-a]pyridine-2-carboxylic Acid (1-benzenesulfonyl-azetidin-3-yl)-amide]", "inhibition at 10 µM": 98.6}]}]}
